# Assay results published in the supplement of paper PMC10307832.
# Tests used:
# Experiment in all cases: relative viability (nuclei count vs DMSO), 5 days (fraction); higher = more cells survive
# Motesanib + Palbociclib = compound: CC1(C)CNc2cc(NC(=O)c3cccnc3NCc3ccncc3)ccc21 [Motesanib] + CC(=O)c1c(C)c2cnc(Nc3ccc(N4CCNCC4)cn3)nc2n(C2CCCC2)c1=O [Palbociclib] (partner 0.5 µM)
# In short: (§1)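 Cells from lung cancer lines were seeded into 1536-well plates and, one day later, dosed by pin tool. Treatments were either a single drug or a fixed dose of an anchor drug with five library-drug doses (not always all listed) in √10 steps. After 5 days, nuclei were stained in a one-step fixation (final 0.05% Triton X-100, 1% formaldehyde, 1 ug/ml Hoechst) and counted on 4× images, and relative viability is the treated-to-vehicle nuclei ratio, as the median of duplicate plates.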
# Motesanib + Navitoclax = compound: CC1(C)CNc2cc(NC(=O)c3cccnc3NCc3ccncc3)ccc21 [Motesanib] + CC1(C)CCC(c2ccc(Cl)cc2)=C(CN2CCN(c3ccc(C(=O)NS(=O)(=O)c4ccc(N[C@H](CCN5CCOCC5)CSc5ccccc5)c(S(=O)(=O)C(F)(F)F)c4)cc3)CC2)C1 [Navitoclax] (partner 0.5 µM)
# In short: as §1
# [1] = compound: C[C@@]1(C(=O)Nc2ccc(F)nc2)CCCN1c1nc(Nc2cc(C3CC3)n[nH]2)c2cccn2n1 + C[C@@H](Oc1cc(-c2cnn(C3CCNCC3)c2)cnc1N)c1c(Cl)ccc(F)c1Cl [Crizotinib] (partner 1 µM)
# In short: as §1
# [2] = compound: C[C@@]1(C(=O)Nc2ccc(F)nc2)CCCN1c1nc(Nc2cc(C3CC3)n[nH]2)c2cccn2n1 + C[C@]1(O)C[C@@H](c2nc(-c3ccc4ccc(-c5ccccc5)nc4c3)c3c(N)nccn32)C1 [Linsitinib] (partner 1 µM)
# In short: as §1
Cell Line,relative viability (Motesanib + Palbociclib; first compound 0.01 µM),relative viability (Motesanib + Palbociclib; first compound 0.03162 µM),relative viability (Motesanib + Palbociclib; first compound 0.1 µM),relative viability (Motesanib + Palbociclib; first compound 0.3162 µM),relative viability (Motesanib + Palbociclib; first compound 1 µM),relative viability (Motesanib + Navitoclax; first compound 0.01 µM),relative viability (Motesanib + Navitoclax; first compound 0.03162 µM),relative viability (Motesanib + Navitoclax; first compound 0.1 µM),relative viability (Motesanib + Navitoclax; first compound 0.3162 µM),relative viability (Motesanib + Navitoclax; first compound 1 µM),relative viability ([1]; first compound 0.04 µM),relative viability ([1]; first compound 0.1265 µM),relative viability ([1]; first compound 0.4 µM),relative viability ([1]; first compound 1.265 µM),relative viability ([2]; first compound 0.04 µM),relative viability ([2]; first compound 0.1265 µM),relative viability ([2]; first compound 0.4 µM),relative viability ([2]; first compound 1.265 µM)
LU99A,0.412,0.489,0.435,0.334,0.417,0.82,0.849,0.75,0.798,0.835,0.391,0.415,0.39,0.233,0.544,0.497,0.499,0.467
LXF-289,0.659,0.6,0.563,0.656,0.585,0.923,0.957,0.931,0.955,0.951,0.837,0.806,0.751,0.714,1.02,0.947,0.936,1.02
NCI-H23,0.482,0.491,0.456,0.604,0.467,0.901,0.552,,0.779,0.826,0.49,0.292,0.2,0.35,0.612,0.5,0.484,0.613
NCI-H322M,0.486,0.439,0.48,0.508,0.466,1.19,1.32,1.33,1.2,1.23,1.04,0.75,0.613,1.15,0.968,0.83,0.865,0.96
NCI-H441,0.237,0.214,0.268,0.2,0.23,0.706,0.729,0.627,0.641,0.796,0.603,0.704,0.553,0.527,0.435,0.417,0.476,0.543
NCI-H460,0.278,0.162,0.142,0.197,0.137,1.15,1.05,1.09,1.14,1.24,0.985,0.699,0.639,0.331,0.834,0.667,0.708,0.82
NCI-H520,0.209,0.215,0.235,0.234,0.225,1.12,0.982,1.1,1.03,1.04,0.802,0.499,0.618,0.636,0.951,0.867,0.915,1.07
NCI-H647,0.428,0.262,0.395,0.423,0.466,1.26,1.49,1.28,1.19,1.18,1.07,1.03,0.841,0.447,1.17,1.2,0.952,1.26
